# In patent publication US9630001B2, “Methods for modulating osteochondral development using bioelectric stimulation” (MedRelief Inc., priority 2005, dated 2017):
# System: Normal human cartilage cells (HCC)
# Assay: Cell growth assessed by DNA content of the cell layer
# Type: cell-based
# Details: 0.1% serum, PEMF 40 microAmps once every 24 hours, measured after 72 hours, L-NAME co-administered
# Procedure: Normal human cartilage cells (HCC; CAMBREX®, Walkersville, Md.) were plated in rectangular cell chambers in monolayer. PEMF application was capacitively coupled through a niobium electrode bridge system which allowed a time varying current to flow uniformly through the chambers. A pulse-burst B-type signal as described herein is composed of a 10-msec burst of asymmetric rectangular pulses, 200/28 microseconds in width, repeated at 15 Hz. The PEMF signal was applied for 30 minutes per treatment. Cell growth was assessed by DNA content of the cell layer. Nitric oxide (NO) content of culture media was assessed by the Griess reaction using an assay kit from INVITROGEN INC.® (Carlsbad, Calif.). Results are expressed as micromoles of NO per cell number as assessed by DNA content of the cell layer.
structure (smiles),measurement,value
"COC(=O)[C@@H](N)CCCNC(=N)N[N+](=O)[O-] [L-NAME, N(G)-nitro-1-arginine methyl ester]","effect on PEMF-increased cell number (DNA, FIG. 7)",attenuated
